Reference: paper PMC10824666 (Nature Cancer, 2023)
Like-named read-outs stand apart in the source and are kept apart here. Blank lines part the entries; values can stand above or below the compound they belong to.

Assays:
Assay in all cases: biochemical
Parameters in all cases: Eurofins DiscoverX kinase panel, competitive binding assay at 1 uM, percent of DMSO control
Conditions in all cases: competitive binding, percent of DMSO control
CAMK4 = target: T1, CAMK4 (Homo sapiens, UniProt Q16566)
T1 sequence (Q16566 1-473): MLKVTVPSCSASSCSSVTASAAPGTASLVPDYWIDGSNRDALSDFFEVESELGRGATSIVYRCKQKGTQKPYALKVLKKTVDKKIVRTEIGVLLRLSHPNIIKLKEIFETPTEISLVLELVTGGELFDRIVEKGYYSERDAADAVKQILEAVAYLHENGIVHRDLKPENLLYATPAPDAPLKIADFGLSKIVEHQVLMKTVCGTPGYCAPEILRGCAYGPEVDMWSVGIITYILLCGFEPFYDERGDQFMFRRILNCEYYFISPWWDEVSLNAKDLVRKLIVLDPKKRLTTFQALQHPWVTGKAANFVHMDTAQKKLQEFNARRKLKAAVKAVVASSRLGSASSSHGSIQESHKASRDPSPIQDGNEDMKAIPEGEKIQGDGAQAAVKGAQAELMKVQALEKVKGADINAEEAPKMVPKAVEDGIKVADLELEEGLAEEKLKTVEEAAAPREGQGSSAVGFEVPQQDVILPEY
Summary of the method: (§1)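 Single-point profiling at 1 µM compound in a competition-binding format against 96 kinases, read out as POC relative to control; n = 1.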

MAP3K1 = MAP3K1 (Homo sapiens, UniProt Q13233)
MAP3K1, sequence (Q13233 whole entry): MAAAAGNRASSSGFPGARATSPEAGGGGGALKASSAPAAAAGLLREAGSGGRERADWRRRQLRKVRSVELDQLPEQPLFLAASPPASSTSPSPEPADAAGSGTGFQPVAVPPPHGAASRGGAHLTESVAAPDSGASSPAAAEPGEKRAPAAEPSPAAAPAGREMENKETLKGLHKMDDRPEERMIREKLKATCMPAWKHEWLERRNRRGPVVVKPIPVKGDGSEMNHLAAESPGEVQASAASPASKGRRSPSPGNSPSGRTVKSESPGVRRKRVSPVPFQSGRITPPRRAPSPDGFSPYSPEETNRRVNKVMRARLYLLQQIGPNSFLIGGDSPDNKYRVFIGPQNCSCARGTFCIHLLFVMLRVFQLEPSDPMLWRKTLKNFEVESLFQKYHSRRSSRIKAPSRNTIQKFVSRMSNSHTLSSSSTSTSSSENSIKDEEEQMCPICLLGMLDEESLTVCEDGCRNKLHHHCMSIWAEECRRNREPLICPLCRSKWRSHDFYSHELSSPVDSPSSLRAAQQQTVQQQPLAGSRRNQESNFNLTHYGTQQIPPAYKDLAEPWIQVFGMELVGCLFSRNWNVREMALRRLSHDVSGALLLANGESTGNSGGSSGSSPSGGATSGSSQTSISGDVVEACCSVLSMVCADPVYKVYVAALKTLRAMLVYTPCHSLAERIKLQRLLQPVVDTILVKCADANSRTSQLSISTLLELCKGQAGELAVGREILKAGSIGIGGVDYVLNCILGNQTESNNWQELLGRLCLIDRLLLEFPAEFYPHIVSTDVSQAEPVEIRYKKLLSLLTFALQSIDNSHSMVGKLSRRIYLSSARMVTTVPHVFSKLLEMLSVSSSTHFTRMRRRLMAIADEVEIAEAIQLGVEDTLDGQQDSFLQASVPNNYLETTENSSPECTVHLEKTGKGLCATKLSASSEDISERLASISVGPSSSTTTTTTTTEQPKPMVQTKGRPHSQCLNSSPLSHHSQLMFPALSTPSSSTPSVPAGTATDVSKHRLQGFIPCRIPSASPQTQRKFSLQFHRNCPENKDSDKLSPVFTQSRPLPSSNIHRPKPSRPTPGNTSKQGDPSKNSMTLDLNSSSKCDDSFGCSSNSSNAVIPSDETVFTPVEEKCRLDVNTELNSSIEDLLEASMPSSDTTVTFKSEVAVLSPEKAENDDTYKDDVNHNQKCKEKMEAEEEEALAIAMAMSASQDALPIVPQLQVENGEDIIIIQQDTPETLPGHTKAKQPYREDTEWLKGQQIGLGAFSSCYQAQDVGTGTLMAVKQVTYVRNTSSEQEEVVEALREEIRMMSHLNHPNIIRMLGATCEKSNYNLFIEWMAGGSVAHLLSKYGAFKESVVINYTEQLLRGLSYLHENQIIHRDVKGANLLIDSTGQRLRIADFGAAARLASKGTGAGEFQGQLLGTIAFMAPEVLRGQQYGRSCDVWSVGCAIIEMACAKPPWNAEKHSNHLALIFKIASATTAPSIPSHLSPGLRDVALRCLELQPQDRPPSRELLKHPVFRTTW
Summary of the method: as §1

SRC = SRC (Homo sapiens, UniProt P12931)
SRC, sequence (P12931 whole entry): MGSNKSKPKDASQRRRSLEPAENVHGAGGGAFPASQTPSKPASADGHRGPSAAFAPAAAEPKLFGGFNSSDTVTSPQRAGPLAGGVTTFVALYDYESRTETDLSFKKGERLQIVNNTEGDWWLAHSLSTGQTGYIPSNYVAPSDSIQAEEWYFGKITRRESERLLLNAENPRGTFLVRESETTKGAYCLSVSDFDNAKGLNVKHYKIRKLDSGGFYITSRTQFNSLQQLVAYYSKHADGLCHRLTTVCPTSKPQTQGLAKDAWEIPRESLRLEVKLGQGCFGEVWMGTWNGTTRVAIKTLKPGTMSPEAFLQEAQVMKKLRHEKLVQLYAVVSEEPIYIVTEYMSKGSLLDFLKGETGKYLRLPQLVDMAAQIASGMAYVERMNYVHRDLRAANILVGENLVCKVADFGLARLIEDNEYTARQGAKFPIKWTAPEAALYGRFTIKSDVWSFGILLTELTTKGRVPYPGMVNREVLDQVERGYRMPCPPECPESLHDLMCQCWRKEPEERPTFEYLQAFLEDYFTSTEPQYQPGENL
Summary of the method: as §1

c-MET = c-MET (Homo sapiens, UniProt P08581)
c-MET, sequence (P08581 whole entry): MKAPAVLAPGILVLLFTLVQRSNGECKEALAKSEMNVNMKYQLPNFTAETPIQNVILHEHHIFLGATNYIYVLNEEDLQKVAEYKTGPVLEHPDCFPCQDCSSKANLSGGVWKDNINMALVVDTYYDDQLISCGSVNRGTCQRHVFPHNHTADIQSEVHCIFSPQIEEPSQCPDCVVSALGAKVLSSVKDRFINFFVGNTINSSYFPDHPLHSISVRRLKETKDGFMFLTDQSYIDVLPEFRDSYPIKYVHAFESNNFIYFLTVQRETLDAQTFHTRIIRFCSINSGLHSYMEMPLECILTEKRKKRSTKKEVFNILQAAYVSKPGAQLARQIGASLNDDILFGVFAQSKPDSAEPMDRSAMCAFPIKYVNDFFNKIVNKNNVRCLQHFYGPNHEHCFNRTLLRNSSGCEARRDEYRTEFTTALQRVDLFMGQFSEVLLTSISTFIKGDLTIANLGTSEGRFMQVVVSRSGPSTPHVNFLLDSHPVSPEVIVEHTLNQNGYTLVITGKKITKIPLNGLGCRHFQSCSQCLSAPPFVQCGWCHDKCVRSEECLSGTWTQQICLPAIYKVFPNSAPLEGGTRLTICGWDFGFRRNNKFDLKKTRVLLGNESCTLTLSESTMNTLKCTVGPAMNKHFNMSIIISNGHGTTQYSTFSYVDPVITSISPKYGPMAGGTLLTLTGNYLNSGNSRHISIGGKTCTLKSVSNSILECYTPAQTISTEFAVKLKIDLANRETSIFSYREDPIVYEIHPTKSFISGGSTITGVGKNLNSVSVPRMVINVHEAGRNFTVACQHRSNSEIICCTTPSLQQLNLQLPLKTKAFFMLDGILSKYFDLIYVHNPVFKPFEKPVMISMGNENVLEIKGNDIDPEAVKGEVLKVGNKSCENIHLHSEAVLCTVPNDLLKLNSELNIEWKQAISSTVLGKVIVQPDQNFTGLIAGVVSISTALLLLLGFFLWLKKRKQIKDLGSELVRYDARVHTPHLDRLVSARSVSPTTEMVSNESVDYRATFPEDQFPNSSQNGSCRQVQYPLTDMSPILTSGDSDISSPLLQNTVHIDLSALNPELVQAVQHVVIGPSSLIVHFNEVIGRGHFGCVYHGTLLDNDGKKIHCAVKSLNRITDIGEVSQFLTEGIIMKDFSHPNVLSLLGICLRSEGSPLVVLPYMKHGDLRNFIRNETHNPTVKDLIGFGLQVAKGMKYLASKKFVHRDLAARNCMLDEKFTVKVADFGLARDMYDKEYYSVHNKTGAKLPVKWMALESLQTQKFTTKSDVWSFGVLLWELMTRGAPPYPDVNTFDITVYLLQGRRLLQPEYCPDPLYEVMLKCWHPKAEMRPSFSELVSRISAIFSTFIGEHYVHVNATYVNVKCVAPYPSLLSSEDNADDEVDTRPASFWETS
Summary of the method: as §1

[1] = read-out: Kinome Profiling performed by Eurofins DiscoverX / AM-1882, 1.0 µM / POC
[2] = read-out: Kinome Profiling performed by Eurofins DiscoverX / AM-5308, 1.0 µM / POC
[3] = read-out: Kinome Profiling performed by Eurofins DiscoverX / AM-0277, 1.0 µM / POC

remaining activity at 1 µM (CAMK4; [1]): 99%
remaining activity at 1 µM (MAP3K1; [1]): 76.5%
remaining activity at 1 µM (SRC; [1]): 98%
remaining activity at 1 µM (c-MET; [1]): 100%
SMILES: CC(C)(C)NS(=O)(=O)c1cccc(NC(=O)c2ccc(S(=O)(=O)NC(C)(C)C)cc2N2CCC3(CC2)CC3)c1 [AM-1882]

remaining activity at 1 µM (CAMK4; [2]): 100%
remaining activity at 1 µM (MAP3K1; [2]): 100%
remaining activity at 1 µM (SRC; [2]): 96.5%
remaining activity at 1 µM (c-MET; [2]): 92%
SMILES: C[C@@H]1CN(c2cccc(NC(=O)c3ccc(NS(=O)(=O)CCO)cc3N3CCC4(CC3)CC4)n2)CCO1 [AM-5308]

remaining activity at 1 µM (CAMK4; [3]): 81%
remaining activity at 1 µM (MAP3K1; [3]): 100%
remaining activity at 1 µM (SRC; [3]): 89%
remaining activity at 1 µM (c-MET; [3]): 89%
SMILES: CC(C)(CO)Nc1ccc(C(=O)Nc2cccc(S(=O)(=O)C3CCCC3)c2)c(N2CCC3(CC2)CC3)n1 [AM-0277]
